Experimental data published in US20150164762A1, “USE OF ETHANOLAMINE PHOSPHATE” (priority 2012, published 2015).

Tested on: BEAS-2B
Experiment: Comprehensive gene expression analysis with Whole Human Genome DNA microarray after EP treatment
Type: cell-based
Protocol: Cells of the established normal human airway epithelial cell line BEAS-2B were used in the experiment. These cells were expansively cultured in 10% FBS RPMI-1640, and seeded at a density of 1×10^5/cm^2 on a 24-well plate. After 24 hours 0.1% FBS RPMI-1640 was substituted, and EP was administered to a final concentration of 0 or 1 mM (n=4). After 24 hours, the cells were used as the DNA microarray samples. RNA was extracted using a QIAGEN RNeasy Mini Kit. The DNA microarray test was performed using a Whole Human Genome DNA microarray 4×44K (Agilent), and the necessary labeling reagents and the like for the DNA microarray test were all from Agilent. The DNA microarray test data were analyzed statistically with GeneSpring (Agilent) dedicated analysis software, and gene function analysis (Gene Ontology (GO) analysis) was performed based on differential expression. The purpose of the GO analysis is to determine stochastically the degree to which gene sets with statistically significant differential expression correspond to known functional classification gene sets. […] The p-value is calculated according to the following formula.

## NCCOP(=O)(O)O [EP, Ethanolamine phosphate]
1 mM EP, 24 h
  expression of cytokines: reduced expression of many cytokines
AEN, probe A_23_P206077
  R*: Ratio to control: 0.420 times
  log2 [ratio]: −1.253
AGGF1, probe A_23_P250554
  R*: Ratio to control: 1.523 times
  log2 [ratio]: 0.607
AIFM2, probe A_32_P75094
  R*: Ratio to control: 0.399 times
  log2 [ratio]: −1.327
AIFM3, probe A_23_P258194
  R*: Ratio to control: 0.590 times
  log2 [ratio]: −0.761
ANXA2, probe A_23_P146644
  R*: Ratio to control: 1.673 times
  log2 [ratio]: 0.742
ANXA2, probe A_32_P94798
  R*: Ratio to control: 1.614 times
  log2 [ratio]: 0.691
APAF1, probe A_23_P36611
  R*: Ratio to control: 0.420 times
  log2 [ratio]: −1.253
APPL1, probe A_24_P302833
  R*: Ratio to control: 1.723 times
  log2 [ratio]: 0.785
ARHGAP24, probe A_23_P110151
  R*: Ratio to control: 1.670 times
  log2 [ratio]: 0.740
ARHGAP24, probe A_24_P388659
  R*: Ratio to control: 1.745 times
  log2 [ratio]: 0.803
ARHGEF6, probe A_23_P85024
  R*: Ratio to control: 0.270 times
  log2 [ratio]: −1.889
BAK1, probe A_23_P145357
  R*: Ratio to control: 0.402 times
  log2 [ratio]: −1.313
BAX, probe A_23_P208706
  R*: Ratio to control: 0.453 times
  log2 [ratio]: −1.143
BAX, probe A_23_P346311
  R*: Ratio to control: 0.511 times
  log2 [ratio]: −0.969
BBC3, probe A_23_P382775
  R*: Ratio to control: 0.315 times
  log2 [ratio]: −1.666
BBC3, probe A_24_P305312
  R*: Ratio to control: 0.366 times
  log2 [ratio]: −1.452
BCAT1, probe A_24_P935986
  R*: Ratio to control: 1.721 times
  log2 [ratio]: 0.783
BCL2L11, probe A_24_P122921
  R*: Ratio to control: 0.636 times
  log2 [ratio]: −0.652
BCL2L14, probe A_23_P128050
  R*: Ratio to control: 0.594 times
  log2 [ratio]: −0.751
BCL10, probe A_23_P115286
  R*: Ratio to control: 0.542 times
  log2 [ratio]: −0.883
BCL10, probe A_24_P19983
  R*: Ratio to control: 0.571 times
  log2 [ratio]: −0.810
BIK, probe A_23_P404867
  R*: Ratio to control: 0.298 times
  log2 [ratio]: −1.748
BLOC1S2, probe A_23_P23960
  R*: Ratio to control: 0.396 times
  log2 [ratio]: −1.336
BLOC1S2, probe A_24_P295543
  R*: Ratio to control: 0.384 times
  log2 [ratio]: −1.381
BMP4, probe A_23_P54144
  R*: Ratio to control: 1.820 times
  log2 [ratio]: 0.864
BNIP3, probe A_23_P138635
  R*: Ratio to control: 0.374 times
  log2 [ratio]: −1.418
BNIP3L, probe A_23_P134925
  R*: Ratio to control: 0.633 times
  log2 [ratio]: −0.661
BTG1, probe A_23_P87560
  R*: Ratio to control: 0.416 times
  log2 [ratio]: −1.265
C16orf5, probe A_23_P15247
  R*: Ratio to control: 0.519 times
  log2 [ratio]: −0.947
CASP1, probe A_23_P202978
  R*: Ratio to control: 0.641 times
  log2 [ratio]: −0.642
CASP10, probe A_23_P209408
  R*: Ratio to control: 0.552 times
  log2 [ratio]: −0.857
CASP10, probe A_24_P139993
  R*: Ratio to control: 0.609 times
  log2 [ratio]: −0.716
CCBE1, probe A_23_P55544
  R*: Ratio to control: 1.755 times
  log2 [ratio]: 0.811
CCBE1, probe A_32_P171043
  R*: Ratio to control: 1.890 times
  log2 [ratio]: 0.918
CDKN1A, probe A_23_P59210
  R*: Ratio to control: 0.439 times
  log2 [ratio]: −1.187
CDKN1A, probe A_24_P89457
  R*: Ratio to control: 0.294 times
  log2 [ratio]: −1.768
CEBPB, probe A_23_P143242
  R*: Ratio to control: 0.617 times
  log2 [ratio]: −0.697
CEBPB, probe A_23_P411296
  R*: Ratio to control: 0.383 times
  log2 [ratio]: −1.385
CIDEC, probe A_23_P92025
  R*: Ratio to control: 0.593 times
  log2 [ratio]: −0.754
CKLF, probe A_23_P118061
  R*: Ratio to control: 1.501 times
  log2 [ratio]: 0.586
CKLF, probe A_23_P206396
  R*: Ratio to control: 1.601 times
  log2 [ratio]: 0.679
CKLF, probe A_24_P215804
  R*: Ratio to control: 1.551 times
  log2 [ratio]: 0.633
CKS2, probe A_23_P71727
  R*: Ratio to control: 1.510 times
  log2 [ratio]: 0.595
COL8A1, probe A_23_P69030
  R*: Ratio to control: 1.999 times
  log2 [ratio]: 0.999
COL8A1, probe A_23_P211762
  R*: Ratio to control: 1.643 times
  log2 [ratio]: 0.716
COL8A1, probe A_24_P139152
  R*: Ratio to control: 1.703 times
  log2 [ratio]: 0.768
DDIT3, probe A_23_P21134
  R*: Ratio to control: 0.210 times
  log2 [ratio]: −2.249
FGF9, probe A_23_P105803
  R*: Ratio to control: 1.606 times
  log2 [ratio]: 0.684
GLI2, probe A_23_P500034
  R*: Ratio to control: 2.060 times
  log2 [ratio]: 1.043
HAND2, probe A_23_P373521
  R*: Ratio to control: 1.971 times
  log2 [ratio]: 0.979
IFI16, probe A_23_P217866
  R*: Ratio to control: 0.585 times
  log2 [ratio]: −0.773
IFNG, probe A_23_P151294
  R*: Ratio to control: 0.611 times
  log2 [ratio]: −0.710
IKBIP, probe A_23_P53467
  R*: Ratio to control: 0.626 times
  log2 [ratio]: −0.675
IKBIP, probe A_23_P303210
  R*: Ratio to control: 0.468 times
  log2 [ratio]: −1.095
IL1A, probe A_23_P72096
  R*: Ratio to control: 0.216 times
  log2 [ratio]: −2.211
KNG1, probe A_32_P230808
  R*: Ratio to control: 0.358 times
  log2 [ratio]: −1.484
LEPR, probe A_24_P231104
  R*: Ratio to control: 1.659 times
  log2 [ratio]: 0.730
LOX, probe A_23_P122216
  R*: Ratio to control: 1.637 times
  log2 [ratio]: 0.711
MAP3K10, probe A_24_P284523
  R*: Ratio to control: 0.570 times
  log2 [ratio]: −0.810
MAPRE2, probe A_23_P89835
  R*: Ratio to control: 1.538 times
  log2 [ratio]: 0.621
MAPRE2, probe A_24_P193911
  R*: Ratio to control: 1.666 times
  log2 [ratio]: 0.736
MMP2, probe A_23_P163787
  R*: Ratio to control: 1.578 times
  log2 [ratio]: 0.658
MVC, probe A_24_P38363
  R*: Ratio to control: 1.686 times
  log2 [ratio]: 0.754
NLRP1, probe A_23_P89550
  R*: Ratio to control: 0.483 times
  log2 [ratio]: −1.048
NLRP1, probe A_24_P83615
  R*: Ratio to control: 0.558 times
  log2 [ratio]: −0.841
NR2F2, probe A_23_P88589
  R*: Ratio to control: 1.662 times
  log2 [ratio]: 0.733
NR2F2, probe A_24_P313354
  R*: Ratio to control: 1.746 times
  log2 [ratio]: 0.804
NR4A1, probe A_23_P128230
  R*: Ratio to control: 0.302 times
  log2 [ratio]: −1.727
NRP1, probe A_24_P135322
  R*: Ratio to control: 1.664 times
  log2 [ratio]: 0.735
NRP1, probe A_24_P928052
  R*: Ratio to control: 1.990 times
  log2 [ratio]: 0.993
NTF3, probe A_23_P360797
  R*: Ratio to control: 0.492 times
  log2 [ratio]: −1.024
NTRK1, probe A_23_P34804
  R*: Ratio to control: 0.261 times
  log2 [ratio]: −1.936
OBSCN, probe A_24_P273157
  R*: Ratio to control: 0.654 times
  log2 [ratio]: −0.613
